According to patent US20250214977A1, “STAT6 INHIBITORS AND USES THEREOF” (Kymera Therapeutics, Inc., priority 2024, published 2025):

These molecules were tested on Phosphorylation of STAT6 in human A549 cells (assay: Phosphorylated STAT6 (pSTAT6) flow cytometry assay in human A549 cells). Conditions: read-out: STAT6 IL4 pSTAT6 assay in A549 cells: Average IC50.
Assay type: cell-based
From the text: Example 3. Phosphorylated STAT6 (pSTAT6) Flow Cytometry Assay in Human A549 Cells
Phosphorylation of STAT6 in human A549 cells was quantitatively measured using flow cytometry technology.

Compound | IC50 [nM]
COc1ccccc1-c1cc(C2=CCCN(C(=O)CCn3ccnn3)C2)c(F)c2[nH]c(C(=O)N3CCN(c4cccc(OC(F)F)n4)CC3)cc12 [Example I-927] | 100 to 1000
COc1ccccc1-c1cc(C2=CCCN(C(=O)CCn3ccnn3)C2)c(F)c2[nH]c(C(=O)N3CCN(c4cc5cccnc5cc4F)CC3)cc12 [Example I-924] | < 100
COc1ccccc1-c1cc(C2=CCCN(C(=O)CCn3ccnn3)C2)c(F)c2[nH]c(C(=O)N3CCN(c4cccc5nonc45)CC3)cc12 [Example I-951] | < 100
COc1cc(N2CCN(C(=O)c3cc4c(-c5ccccc5OC)cc(C5=CCCN(C(=O)CCn6ccnn6)C5)c(F)c4[nH]3)CC2)c2ccccc2c1 [Example I-957] | 100 to 1000
COc1ccccc1-c1cc(C2=CCCN(C(=O)CCn3ccnn3)C2)c(F)c2[nH]c(C(=O)NC(C#N)c3ccccc3)cc12 (stereo not shown) [Example I-772] | > 100000
O=C(CCn1ccnn1)N1CCC=C(c2cc(-c3ccccc3)c3cc(C(=O)N4CCN(c5ncccc5OC5CC5)CC4)[nH]c3c2F)C1 [Example I-938] | < 100
COc1ccccc1-c1cc(C2=CCCN(C(=O)CCn3ccnn3)C2)c(F)c2[nH]c(C(=O)N3CCN(c4nc(C)nc5ccccc45)CC3)cc12 [Example I-923] | < 100
CN1CCN(c2ccc(-c3cc(C4=CCCN(C(=O)CCn5ccnn5)C4)cc4cc(C(=O)N(C)C)oc34)cn2)CC1 [Example I-1087] | < 100
COc1ccccc1-c1cc(C2=CCCN(C(=O)CCn3ccnn3)C2)c(F)c2[nH]c(C(=O)N3CCc4nocc4C3)cc12 [Example I-1029] | < 100
COc1ccccc1-c1cc(C2=CCCN(C(=O)CCn3ccnn3)C2)c(F)c2[nH]c(C(=O)N3CCc4cnn(C)c4C3)cc12 [Example I-516] | < 100
COc1ccncc1-c1cc(C2=CCCN(C(=O)CCn3ccnn3)C2)c(F)c2[nH]c(C(=O)N3CC=C(c4ncccc4OC)CC3)cc12 [Example I-452] | > 100000
COc1ccccc1-c1cc(C2=CCCN(C(=O)CCn3ccnn3)C2)c(F)c2[nH]c(C(=O)N3CCN(c4nccc5ccccc45)CC3)cc12 [Example I-363] | < 100
COc1ccncc1-c1cc(C(=O)N2CCN(c3ncc(F)cc3OC)CC2)cc2cc(C3CCCN(C(=O)CCn4ccnn4)C3)[nH]c12 (stereo not shown) [Example I-1203] | 1000 to 10000
COc1ccccc1-c1cc(C2=CCCN(C(=O)CCn3ccnn3)C2)c(F)c2[nH]c(C(=O)N3CCN(c4cc5ccccc5cc4OC)CC3)cc12 [Example I-342] | < 100
CCc1cc(C)ncc1-c1cc(C(=O)N2CCN(c3ncc(F)cc3OC)CC2)cc2cc(C3=CCCN(C(=O)CCn4ccnn4)C3)n(CC3CC3)c12 [Example I-533] | < 100
COc1ccccc1-c1cc(C2=CCCN(C(=O)CCn3ccnn3)C2)c(F)c2[nH]c(C(=O)N3CCN(c4c(C)nn(C)c4C#N)CC3)cc12 [Example I-775] | < 100
COc1ccccc1-c1cc(C2=CCCN(C(=O)CCn3ccnn3)C2)c(F)c2[nH]c(C(=O)N3CCN(c4c(F)ccc5cnccc45)CC3)cc12 [Example I-972] | < 100
COc1ccccc1-c1cc(C2=CCCN(C(=O)CCn3ccnn3)C2)c(F)c2[nH]c(C(=O)N3CCN(c4ccn5nc(C)nc5c4)CC3)cc12 [Example I-919] | < 100
COc1c(-c2cc(C3=CCCN(C(=O)CCn4ccnn4)C3)c(F)c3[nH]c(C(=O)N4CCN(C5CC5)CC4)cc23)cnc2ccccc12 [Example I-449] | < 100
CCc1ccncc1-c1cc(C2=CCCN(C(C)=O)C2)c(F)c2[nH]c(C(=O)N3Cc4cnn(C)c4C3)cc12 [Example I-702] | 10000 to 100000
CCc1ccncc1-c1cc(C2=CCCN(C(=O)CCn3cccn3)C2)c(F)c2[nH]c(C(=O)N3CCN(c4ncc(OC)cc4OC)CC3)cc12 [Example I-683] | < 100
COc1ccccc1-c1cc(C2=CCCN(C(=O)CCn3ccnn3)C2)c(F)c2[nH]c(C(=O)N3CCN(c4ccccc4)CC3)cc12 [Example I-419] | < 100
COc1ccccc1N1CCN(C(=O)c2cc3c(-c4cccc(F)c4OC)cc(C4=CCCN(C(=O)CCn5ccnn5)C4)c(F)c3[nH]2)CC1 [Example I-567] | < 100
CN(C)C(=O)c1cc2cc(C3=CCCN(C(=O)CCn4ccnn4)C3)cc(CN3CCCCC3)c2o1 [Example I-1178] | 100 to 1000
CN(C)C(=O)c1cc2cc(C3=CCCN(C(=O)CCn4ccnn4)C3)cc(-c3ccc4cncnc4c3)c2o1 [Example I-1089] | < 100
COc1cccc(N2CCN(C(=O)c3cc4c(-c5cc(F)cc(F)c5OC)cc(C5=CCCN(C(=O)CCn6ccnn6)C5)c(F)c4[nH]3)CC2)n1 [Example I-591] | < 100

Further lines, results first:

IC50 [nM] | Compound
> 100000 | COc1ccncc1-c1cc(C2=CCCN(C(=O)CCn3ccnn3)C2)c(F)c2[nH]c(C(=O)N3CCN(c4nc(C)c(F)cc4OC)CC3)cc12 [Example I-500]
< 100 | COc1cnc(N2CCN(C(=O)c3cc4c(-c5ccccc5OC)cc(C5=CCCN(C(=O)CCn6ccnn6)C5)c(F)c4[nH]3)CC2)c(OC)c1 [Example I-352]
< 100 | COc1cc(F)cnc1N1CCN(C(=O)c2cc3c(-c4ccc(C)c5ncccc45)cc(C4=CCCN(C(=O)CCn5ccnn5)C4)c(F)c3[nH]2)CC1 [Example I-635]
< 100 | COc1cc(F)cnc1N1CCN(C(=O)c2cc3c(C4=CCN(C(C)=O)CC4)cc(C4=CCCN(C(=O)CCn5ccnn5)C4)c(F)c3[nH]2)CC1 [Example I-657]
< 100 | COc1cc(F)cnc1N1CCN(C(=O)c2cc3c(-c4cccc(CN5CCOCC5)c4)cc(C4=CCCN(C(=O)CCn5ccnn5)C4)c(F)c3[nH]2)CC1 [Example I-1154]
< 100 | COc1cc2c(-c3cc(C4=CCCN(C(=O)CCn5ccnn5)C4)c(F)c4[nH]c(C(=O)N5CCN(c6ncc(F)cc6OC)CC5)cc34)ccnc2cc1F [Example I-691]
< 100 | COc1cccnc1N1CCN(C(=O)c2cc3c(N4CCN(C)CC4)cc(C4=CCCN(C(=O)CCn5ccnn5)C4)c(F)c3[nH]2)CC1 [Example I-557]
< 100 | COc1cc(F)cnc1N1CCN(C(=O)c2cc3c(-c4cccc(-c5cccnc5)c4)cc(C4=CCCN(C(=O)CCn5ccnn5)C4)c(F)c3[nH]2)CC1 [Example I-629]
< 100 | COc1ccccc1-c1cc(C2=CCCN(C(=O)CCn3cccn3)C2)c(F)c2[nH]c(C(=O)N3CCN(c4ncc(F)cc4OC)CC3)cc12 [Example I-687]
< 100 | COc1cc(F)cnc1N1CCN(C(=O)c2cc3c(C4=CCCOC4)cc(C4=CCCN(C(=O)CCn5ccnn5)C4)c(F)c3[nH]2)CC1 [Example I-1126]
< 100 | COc1ccccc1-c1cc(C2=CCCN(C(=O)CCn3ccnn3)C2)c(F)c2[nH]c(C(=O)N3CCN(c4ncccc4OC4CC4)CC3)cc12 [Example I-336]
100 to 1000 | COc1cc(F)cnc1N1CCN(C(=O)c2cc3c(-c4ccc(NC5CCCC5)cc4)cc(C4=CCCN(C(=O)CCn5ccnn5)C4)c(F)c3[nH]2)CC1 [Example I-1124]
< 100 | COc1c(F)cc(F)cc1-c1cc(C2=CCCN(C(=O)CCn3ccnn3)C2)c(F)c2[nH]c(C(=O)N3CCN(C4CC4)CC3)cc12 [Example I-603]
< 100 | COc1cc(N(C)C)ccc1-c1cc(C2=CCCN(C(=O)CCn3ccnn3)C2)c(F)c2[nH]c(C(=O)N3CCN(c4ncccc4OC4CC4)CC3)cc12 [Example I-609]
100 to 1000 | COc1cc(F)cnc1N1CCN(C(=O)c2cc3c(/C=C/C4CCCCC4)cc(C4=CCCN(C(=O)CCn5ccnn5)C4)c(F)c3[nH]2)CC1 [Example I-1163]
< 100 | COc1cc(F)cnc1N1CCN(C(=O)c2cc3c(-c4cnn(C5CC5)c4)cc(C4=CCCN(C(=O)CCn5ccnn5)C4)c(F)c3[nH]2)CC1 [Example I-1151]
< 100 | COc1cc(F)cnc1N1CCN(C(=O)c2cc3c(C=C4CCOCC4)cc(C4=CCCN(C(=O)CCn5ccnn5)C4)c(F)c3[nH]2)CC1 [Example I-644]
< 100 | CCc1cc(C)ncc1-c1cc(C2=CCCN(C(=O)CCn3ccnn3)C2)c(F)c2[nH]c(C(=O)N3CCN(c4ccc(F)cc4OC)CC3)cc12 [Example I-739]
< 100 | COc1cc(F)ccc1-c1cc(C2=CCCN(C(=O)CCn3ccnn3)C2)c(F)c2[nH]c(C(=O)N3CCN(c4ncccc4OC4CC4)CC3)cc12 [Example I-594]
< 100 | COc1cc(F)cnc1N1CCN(C(=O)c2cc3c(-c4cnn(-c5ccccc5)c4C)cc(C4=CCCN(C(=O)CCn5ccnn5)C4)c(F)c3[nH]2)CC1 [Example I-625]
100 to 1000 | COc1cc(F)cnc1N1CCN(C(=O)c2cc3c(-c4ccn(-c5ccccc5)n4)cc(C4=CCCN(C(=O)CCn5ccnn5)C4)c(F)c3[nH]2)CC1 [Example I-1113]
< 100 | COCOc1ccc(F)cc1-c1cc(C2=CCCN(C(=O)CCn3ccnn3)C2)c(F)c2[nH]c(C(=O)N3CCN(c4ncc(F)cc4OC)CC3)cc12 [Example I-660]
< 100 | CCc1ccncc1-c1cc(C2=CCCN(C(=O)CCn3cccn3)C2)c(F)c2[nH]c(C(=O)N3CCN(c4ncc(F)cc4OC)CC3)cc12 [Example I-686]
< 100 | COc1cccnc1N1CCN(C(=O)c2cc3c(-c4ccc(C#N)cn4)cc(C4=CCCN(C(=O)CCn5ccnn5)C4)c(F)c3[nH]2)CC1 [Example I-575]
< 100 | CCOc1c(F)cccc1-c1cc(C2=CCCN(C(=O)CCn3ccnn3)C2)c(F)c2[nH]c(C(=O)N3CCN(c4ncc(F)cc4OC)CC3)cc12 [Example I-643]
< 100 | COc1ccccc1-c1cc(C2=CCCN(C(=O)CCn3ccnn3)C2)c(F)c2[nH]c(C(=O)N3CCN(c4ncc(C(F)(F)F)cc4OC)CC3)cc12 [Example I-941]
< 100 | COc1cc(F)c(F)cc1-c1cc(C2=CCCN(C(=O)CCn3ccnn3)C2)c(F)c2[nH]c(C(=O)N3CCN(c4ncccc4OC)CC3)cc12 [Example I-559]
100 to 1000 | CCC1CCCCC1c1cc(C2=CCCN(C(=O)CCn3ccnn3)C2)c(F)c2[nH]c(C(=O)N3CCN(c4ncc(F)cc4OC)CC3)cc12 (single isomer, unassigned) [Example I-1175]
< 100 | COc1cc(F)cnc1N1CCN(C(=O)c2cc3c(C4CCCCN4C)cc(C4=CCCN(C(=O)CCn5ccnn5)C4)c(F)c3[nH]2)CC1 (stereo not shown) [Example I-780]
